Reference: patent US7557137B2, “Gamma-lactams as beta-secretase inhibitors” (Bristol-Myers Squibb Company, priority 2002, dated 2009)

Target: T1, BACE enzyme (Homo sapiens, UniProt P56817)
T1 construct: the catalytic domain, appended by a C-terminal poly-histidine tag, is secreted out into the cellular medium; made in house; host or cells: Drosophila melanogaster S2 cells
Assay: BACE enzyme inhibition, fluorescence-quenched peptide substrate MCA-EVNLDAEFK(DNP)
Format: biochemical
Conditions: 50 mM acetate, pH 4.5, 0.25 mg/ml bovine serum albumin, 2.5% DMSO; read-out: Activity Rating (based on IC50 values)
Text: There are a number of methods by which inhibitors of the BACE enzyme can be identified experimentally. The enzyme can be obtained from membrane samples from natural tissues or cultured cells or can be expressed recombinantly in a host cell by well known methods of molecular biology. […] The enzymatic activity and/or ligand binding capability of the enzyme can be assessed within these membrane samples, or the enzyme can be purified to varying extents. As an illustrative example, the nucleic acid sequence encoding the pro and catalytic domains of human BACE can be appended on the 5′ end with an untranslated and signal sequence from the gene for acetylcholinesterase, and on the 3′ end with a sequence encoding a poly-histidine tag. This cDNA can then be expressed in Drosophila melanogaster S2 cells in which the signal and pro sequences of the transcribed/translated protein are removed by cellular proteases and the catalytic domain, appended by a C-terminal poly-histidine tag, is secreted out into the cellular medium. The enzyme can then be purified from the culture medium by nickel affinity chromatography by methods well known to those trained in the art [Mallender, W. et al., (2001) “Characterization of recombinant, soluble beta-secretase from an insect cell expression system.” Mol. Pharmacol. 59: 619-626]. Similar strategies for expressing and purifying various forms of BACE in bacterial, mammalian and other cell types would be known to one skilled in the art.
The enzyme thus obtained can be put in contact with a test compound and with an appropriate substrate on which enzyme-mediated peptide bond hydrolysis is known to occur. The ability of the test compound to diminish the rate of substrate hydrolysis can then be quantified as a measure of inhibition potency. Appropriate substrates can be prepared as peptides, proteins, or chemically modified versions of peptides or proteins, that contain an amino acid sequence that is recognized as a substrate by the enzyme. For example, the amino acid sequence immediately proximal to the beta-cleavage site within Swedish mutant APP is known to be recognized as a substrate for BACE. […] Longer peptide and protein substrates can also be designed by extending the amino acid composition on the N-terminal, the C-terminal, or both ends.
In one known application of (SEQ. ID. NO.:1), X is a 7-methoxycoumarin-4-acetyl (MCA) group and Y is a dinitrophenyl (DNP) group [Marcinkeviciene, J. et al., (2001) “Mechanism of inhibition of beta-site amyloid precursor protein-cleaving enzyme (BACE) by a statine-based peptide.” J. Biol. Chem. 276: 23790-23794]. When this peptide is intact, the natural fluorescence of the MCA group is quenched by its proximity to the DNP group. […] The increase in fluorescence intensity that accompanies enzyme-mediated peptide hydrolysis can be measured as a function of time to quantify the velocity of enzyme catalysis. In a typical assay system the BACE enzyme is diluted into a buffer system composed of 50 mM acetate, pH 4.5 containing 0.25 mg/ml bovine serum albumin. To this is added neat dimethyl sulfoxide (DMSO) or a stock solution of test compound dissolved in DMSO so that the final amount of DMSO in all assays is held constant at 2.5% (v:v). The enzymatic reaction is then initiated by addition of a stock solution of the substrate peptide to a known concentration. The fluorescence increase with time after substrate addition is monitored with an appropriate fluorescence detection instrument, such as a microplate reader or spectrofluorometer. The slope of the signal vs. time plot (progress curve) for samples to which only DMSO was added is taken as a measure of the uninhibited velocity and represents 100% enzymatic activity.

T1 sequence (P56817 75-416 limits assumed): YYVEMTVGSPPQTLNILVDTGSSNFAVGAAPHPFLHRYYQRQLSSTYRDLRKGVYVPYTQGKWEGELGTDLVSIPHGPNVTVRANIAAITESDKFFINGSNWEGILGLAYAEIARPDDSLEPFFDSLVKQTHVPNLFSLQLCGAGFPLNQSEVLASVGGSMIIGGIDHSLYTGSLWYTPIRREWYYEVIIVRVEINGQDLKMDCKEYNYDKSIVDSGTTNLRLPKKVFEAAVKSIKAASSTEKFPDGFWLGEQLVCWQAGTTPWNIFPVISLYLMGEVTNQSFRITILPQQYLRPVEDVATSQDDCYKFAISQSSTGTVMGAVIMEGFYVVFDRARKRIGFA

`CCC(=O)N[C@]1([C@@H](C)CC)CCN([C@@H](CCc2ccccc2)C(=O)N[C@@H](Cc2ccccc2)[C@H](O)CNCc2cccc(OC)c2)C1=O` [Example 10, (2S)-2-(3(S)-propionylamino-3-((S)-sec-butyl)-2-oxo-pyrrolidin-1-yl)-N-[(1S,2R)-1-benzyl-2-hydroxy-3-(3-methoxy-benzylamino)-propyl]-4-phenyl-butyramide] was tested. Which IC50 did it give?
Its IC50 is less than 0.1 µM.

For `CC[C@H](C)[C@@]1(NC(C)=O)CCN([C@@H](CCc2ccccc2)C(=O)N[C@@H](Cc2ccccc2F)[C@H](O)CNCc2cccc(OC)c2)C1=O` [Example 11, (2S)-2-(3(S)-acetylamino-3-((S)-sec-butyl)-2-oxo-pyrrolidin-1-yl)-N-[(1S,2R)-1-(2-fluorobenzyl)-2-hydroxy-3-(3-methoxy-benzylamino)-propyl]-4-phenyl-butyramide], which IC50 is on record?
Its IC50 is 0.1 to 1 µM.

With `CC[C@H](C)[C@@]1(NC(C)=O)CCN([C@@H](CCc2ccccc2)C(=O)N[C@@H](Cc2ccccc2F)[C@H](O)CNCc2cccc(Cl)c2)C1=O` [Example 12, (2S)-2-(3(S)-acetylamino-3-((S)-sec-butyl)-2-oxo-pyrrolidin-1-yl)-N-[(1S,2R)-1-(2-fluorobenzyl)-2-hydroxy-3-(3-chloro-benzylamino)-propyl]-4-phenyl-butyramide] as the molecule, how does the IC50 read?
Its IC50 is 0.1 to 1 µM.

`CCOC(=O)N[C@]1([C@@H](C)CC)CCN([C@@H](CCc2ccccc2)C(=O)N[C@@H](Cc2ccccc2)[C@@H](O)CNCc2cccc(OC)c2)C1=O` [Example 13, (2S)-2-(3(S)-ethoxycarbonylamino-3-((S)-sec-butyl)-2-oxo-pyrrolidin-1-yl)-N-[(1S,2S)-1-benzyl-2-hydroxy-3-(3-methoxy-benzylamino)-propyl]-4-phenyl-butyramide] was tested. Which IC50 did it give?
Its IC50 is 1 to 50 µM.

How did the IC50 turn out when `CCCNC(=O)N[C@]1([C@@H](C)CC)CCN([C@@H](CCc2ccccc2)C(=O)N[C@@H](Cc2ccccc2)[C@H](O)CNCc2cccc(OC)c2)C1=O` [Example 17, (2S)-2-(3(S)-propylureido-3-((S)-sec-butyl)-2-oxo-pyrrolidin-1-yl)-N-[(1S,2R)-1-benzyl-2-hydroxy-3-(3-methoxy-benzylamino)-propyl]-4-phenyl-butyramide] was run?
The IC50 was 0.1 to 1 µM.

With `CCNC(=O)N[C@]1([C@@H](C)CC)CCN([C@@H](CCc2ccccc2)C(=O)N[C@@H](Cc2ccccc2)[C@H](O)CNCc2cccc(OC)c2)C1=O` [Example 18, (2S)-2-(3(S)-ethylureido-3-((S)-sec-butyl)-2-oxo-pyrrolidin-1-yl)-N-[(1S,2R)-1-benzyl-2-hydroxy-3-(3-methoxy-benzylamino)-propyl]-4-phenyl-butyramide] as the molecule, how does the IC50 read?
The IC50 was less than 0.1 µM.

Which IC50 does the source give for `CC[C@H](C)[C@@]1(NC(=O)C(F)(F)F)CCN([C@@H](CCc2ccccc2)C(=O)N[C@@H](Cc2ccccc2)[C@H](O)CNCc2cccc(OC)c2)C1=O` [Example 19, (2S)-2-(3(S)-(trifluoroacetyl)amino-3-((S)-sec-butyl)-2-oxo-pyrrolidin-1-yl)-N-[(1S,2R)-1-benzyl-2-hydroxy-3-(3-methoxy-benzylamino)-propyl]-4-phenyl-butyramide] here?
The IC50 was 0.1 to 1 µM.

For `CC[C@H](C)[C@@]1(NC(=O)CCc2cnc[nH]2)CCN([C@@H](CCc2ccccc2)C(=O)N[C@@H](Cc2ccccc2)[C@H](O)CNCc2cccc(OC)c2)C1=O` [Example 20, (2S)-2-(3(S)-(3-3H-imidazol-4-yl-propionylamino)-3-((S)-sec-butyl)-2-oxo-pyrrolidin-1-yl)-N-[(1S,2R)-1-benzyl-2-hydroxy-3-(3-methoxy-benzylamino)-propyl]-4-phenyl-butyramide], which IC50 is on record?
Its IC50 is 0.1 to 1 µM.

How did the IC50 turn out when `CC[C@H](C)[C@@]1(NC(=O)CCO)CCN([C@@H](CCc2ccccc2)C(=O)N[C@@H](Cc2ccccc2)[C@H](O)CNCc2cccc(OC)c2)C1=O` [Example 24, (2S)-2-(3(S)-(3-hydroxypropionylamino)-3-((S)-sec-butyl)-2-oxo-pyrrolidin-1-yl)-N-[(1S,2R)-1-benzyl-2-hydroxy-3-(3-methoxy-benzylamino)-propyl]-4-phenyl-butyramide] was run?
Its IC50 is less than 0.1 µM.

Which IC50 does the source give for `CC[C@H](C)[C@@]1(NC(=O)CCCO)CCN([C@@H](CCc2ccccc2)C(=O)N[C@@H](Cc2ccccc2)[C@H](O)CNCc2cccc(OC)c2)C1=O` [Example 25, (2S)-2-(3(S)-(4-hydroxybutyrylamino)-3-((S)-sec-butyl)-2-oxo-pyrrolidin-1-yl)-N-[(1S,2R)-1-benzyl-2-hydroxy-3-(3-methoxy-benzylamino)-propyl]-4-phenyl-butyramide] here?
The IC50 was less than 0.1 µM.

How did the IC50 turn out when `CCC(C)[C@@]1(NS(=O)(=O)CC)CCN([C@@H](CCc2ccccc2)C(=O)N[C@@H](Cc2ccccc2)C(O)CNCc2cccc(OC)c2)C1=O` (stereo partly drawn) [Example 26, (2S)-2-(3(S)-(ethylsulfonamido)-3-((S)-sec-butyl)-2-oxo-pyrrolidin-1-yl)-N-[(1S)-1-benzyl-2-hydroxy-3-(3-methoxy-benzylamino)-propyl]-4-phenyl-butyramide] was run?
Its IC50 is 1 to 50 µM.

For `CCCS(=O)(=O)N[C@]1(C(C)CC)CCN([C@@H](CCc2ccccc2)C(=O)N[C@@H](Cc2ccccc2)C(O)CNCc2cccc(OC)c2)C1=O` (stereo partly drawn) [Example 27, (2S)-2-(3(S)-(propylsulfonamido)-3-((S)-sec-butyl)-2-oxo-pyrrolidin-1-yl)-N-[(1S)-1-benzyl-2-hydroxy-3-(3-methoxy-benzylamino)-propyl]-4-phenyl-butyramide], which IC50 is on record?
The IC50 was 1 to 50 µM.

`CC[C@H](C)[C@@]1(NC(C)=O)CCN([C@@H](CCc2ccccc2)C(=O)N[C@@H](Cc2ccccc2)[C@H](O)CNCc2cccc(Cl)c2)C1=O` [Example 29, (2S)-2-(3(S)-acetylamino-3-((S)-sec-butyl)-2-oxo-pyrrolidin-1-yl)-N-[(1S,2R)-1-benzyl-2-hydroxy-3-(3-chloro-benzylamino)-propyl]-4-phenyl-butyramide] was tested. Which IC50 did it give?
The IC50 was less than 0.1 µM.

With `C#CCNC[C@@H](O)[C@H](Cc1ccccc1)NC(=O)[C@H](CCc1ccccc1)N1CC[C@](NC(C)=O)([C@@H](C)CC)C1=O` [Example 30, (2S)-2-(3(S)-acetylamino-3-((S)-sec-butyl)-2-oxo-pyrrolidin-1-yl)-N-[(1S,2R)-1-benzyl-2-hydroxy-3-(propargylamino)-propyl]-4-phenyl-butyramide] as the molecule, how does the IC50 read?
Its IC50 is less than 0.1 µM.

How did the IC50 turn out when `CC[C@H](C)[C@@]1(NC(C)=O)CCN([C@@H](CCc2ccccc2)C(=O)N[C@@H](Cc2ccccc2)[C@H](O)CNCC2CC2)C1=O` [Example 31, (2S)-2-(3(S)-acetylamino-3-((S)-sec-butyl)-2-oxo-pyrrolidin-1-yl)-N-[(1S,2R)-1-benzyl-2-hydroxy-3-(cyclopropylmethyl)amino-propyl]-4-phenyl-butyramide] was run?
The IC50 was 0.1 to 1 µM.

How did the IC50 turn out when `CC[C@H](C)[C@@]1(NC(C)=O)CCN([C@@H](CCc2ccccc2)C(=O)N[C@@H](Cc2ccccc2)[C@H](O)CNCc2cc(F)cc(F)c2)C1=O` [Example 33, (2S)-2-(3(S)-acetylamino-3-((S)-sec-butyl)-2-oxo-pyrrolidin-1-yl)-N-[(1S,2R)-1-benzyl-2-hydroxy-3-(3,5-difluorobenzylamino)-propyl]-4-phenyl-butyramide] was run?
The IC50 was less than 0.1 µM.

Which IC50 does the source give for `CC(=O)N[C@]1(CC(C)C)CCN([C@@H](CCc2ccccc2)C(=O)N[C@@H](Cc2ccccc2)[C@H](O)CNCc2ccccc2)C1=O` [Example 35, 2-(3(S)-Acetylamino-3(S)-isobutyl-2-oxo-pyrrolidin-1-yl)-N-[(1S,2R)-1-benzyl-2-hydroxy-3-benzylamino-propyl]-4-phenyl-butyramide] here?
Its IC50 is less than 0.1 µM.

With `CC(=O)N[C@]1(CC(C)C)CCN([C@@H](CCc2ccccc2)C(=O)N[C@@H](Cc2ccccc2)[C@H](O)CNCCC#N)C1=O` [Example 37, 2-(3(S)-Acetylamino-3(S)-isobutyl-2-oxo-pyrrolidin-1-yl)-N-[(1S,2R)-1-benzyl-3-(2-cyano-ethylamino)-2-hydroxy-propyl]-4-phenyl-butyramide] as the molecule, how does the IC50 read?
Its IC50 is less than 0.1 µM.

For `COc1cccc(CNC[C@@H](O)[C@H](Cc2cc(F)cc(F)c2)NC(=O)[C@H](CCc2ccc3c(c2)OCO3)N2CC[C@@](CC3CC3)(NC(C)=O)C2=O)c1` [Example 39], which IC50 is on record?
The IC50 was less than 0.1 µM.
